Experimental data published in PubChem BioAssay AID1259407 (Chemical Carcinogenesis Research Information System (CCRIS), 2018).
The source made the active and inactive calls. How the calls were made is not given here.

System: CCRIS mutagenicity, Ames/micronucleus/aberration tests
Experiment: CCRIS mutagenicity studies
[1] = Test System: AMES SALMONELLA TYPHIMURIUM, Strain/Indicator: TA98, Metabolic Activation: NONE, Method: STANDARD PLATE
[2] = Test System: AMES SALMONELLA TYPHIMURIUM, Strain/Indicator: TA100, Metabolic Activation: NONE, Method: STANDARD PLATE
[3] = Test System: AMES SALMONELLA TYPHIMURIUM, Strain/Indicator: TA1535, Metabolic Activation: NONE, Method: STANDARD PLATE
[4] = Test System: AMES SALMONELLA TYPHIMURIUM, Strain/Indicator: TA1537, Metabolic Activation: NONE, Method: STANDARD PLATE
[5] = Test System: AMES SALMONELLA TYPHIMURIUM, Strain/Indicator: TA1538, Metabolic Activation: NONE, Method: STANDARD PLATE
[6] = Test System: MOUSE LYMPHOMA, Strain/Indicator: L5178Y (TK+/TK-), Metabolic Activation: NONE, Method: SUSPENSION/PLATE
[7] = Test System: MOUSE LYMPHOMA, Strain/Indicator: L5178Y (TK+/TK-), Metabolic Activation: RAT, LIVER, S-9, AROCLOR 1254, Method: SUSPENSION/PLATE

**Q.** Which mutagenic call (Test System: AMES SALMONELLA TYPHIMURIUM, Strain/Indicator: TA98, Metabolic Activation: HAMSTER, LIVER, S-9, AROCLOR 1254, Method: STANDARD PLATE) does the source give for `[Cl][Fe]([Cl])[Cl]` here?
**A.** Its mutagenic call is “inactive; negative”.

**Q.** And the mutagenic call (Test System: AMES SALMONELLA TYPHIMURIUM, Strain/Indicator: TA98, Metabolic Activation: NONE, Method: PREINCUBATION)?
**A.** Its mutagenic call is “inactive; negative”.

**Q.** And the mutagenic call [1]?
**A.** Its mutagenic call is “inactive; negative”.

**Q.** And the mutagenic call (Test System: AMES SALMONELLA TYPHIMURIUM, Strain/Indicator: TA98, Metabolic Activation: RAT, LIVER, S-9, AROCLOR 1254, Method: STANDARD PLATE)?
**A.** Its mutagenic call is “inactive; negative”.

**Q.** And the mutagenic call (Test System: AMES SALMONELLA TYPHIMURIUM, Strain/Indicator: TA98, Metabolic Activation: RAT, LIVER, S-9, KC 500, Method: PREINCUBATION)?
**A.** Its mutagenic call is “inactive; negative”.

**Q.** What about the mutagenic call (Test System: AMES SALMONELLA TYPHIMURIUM, Strain/Indicator: TA100, Metabolic Activation: HAMSTER, LIVER, S-9, AROCLOR 1254, Method: STANDARD PLATE) of the same molecule?
**A.** The mutagenic call was “inactive; negative”.

**Q.** And the mutagenic call (Test System: AMES SALMONELLA TYPHIMURIUM, Strain/Indicator: TA100, Metabolic Activation: NONE, Method: PREINCUBATION)?
**A.** The mutagenic call was “inactive; negative”.

**Q.** And the mutagenic call [2]?
**A.** The mutagenic call was “inactive; negative”.

**Q.** What about the mutagenic call (Test System: AMES SALMONELLA TYPHIMURIUM, Strain/Indicator: TA100, Metabolic Activation: RAT, LIVER, S-9, AROCLOR 1254, Method: STANDARD PLATE) of the same molecule?
**A.** Its mutagenic call is “inactive; negative”.

**Q.** And the mutagenic call (Test System: AMES SALMONELLA TYPHIMURIUM, Strain/Indicator: TA100, Metabolic Activation: RAT, LIVER, S-9, KC 500, Method: PREINCUBATION)?
**A.** The mutagenic call was “inactive; negative”.

**Q.** And the mutagenic call (Test System: AMES SALMONELLA TYPHIMURIUM, Strain/Indicator: TA1535, Metabolic Activation: HAMSTER, LIVER, S-9, AROCLOR 1254, Method: STANDARD PLATE)?
**A.** The mutagenic call was “inactive; negative”.

**Q.** And the mutagenic call (Test System: AMES SALMONELLA TYPHIMURIUM, Strain/Indicator: TA1535, Metabolic Activation: NONE, Method: PREINCUBATION)?
**A.** The mutagenic call was “inactive; negative”.

**Q.** What about the mutagenic call [3] of the same molecule?
**A.** The mutagenic call was “inactive; negative”.

**Q.** And the mutagenic call (Test System: AMES SALMONELLA TYPHIMURIUM, Strain/Indicator: TA1535, Metabolic Activation: RAT, LIVER, S-9, AROCLOR 1254, Method: STANDARD PLATE)?
**A.** The mutagenic call was “inactive; negative”.

**Q.** What about the mutagenic call (Test System: AMES SALMONELLA TYPHIMURIUM, Strain/Indicator: TA1535, Metabolic Activation: RAT, LIVER, S-9, KC 500, Method: PREINCUBATION) of the same molecule?
**A.** The mutagenic call was “inactive; negative”.

**Q.** And the mutagenic call (Test System: AMES SALMONELLA TYPHIMURIUM, Strain/Indicator: TA1537, Metabolic Activation: HAMSTER, LIVER, S-9, AROCLOR 1254, Method: STANDARD PLATE)?
**A.** The mutagenic call was “inactive; negative”.

**Q.** And the mutagenic call (Test System: AMES SALMONELLA TYPHIMURIUM, Strain/Indicator: TA1537, Metabolic Activation: NONE, Method: PREINCUBATION)?
**A.** Its mutagenic call is “inactive; negative”.

**Q.** What about the mutagenic call [4] of the same molecule?
**A.** Its mutagenic call is “inactive; negative”.

**Q.** And the mutagenic call (Test System: AMES SALMONELLA TYPHIMURIUM, Strain/Indicator: TA1537, Metabolic Activation: RAT, LIVER, S-9, AROCLOR 1254, Method: STANDARD PLATE)?
**A.** Its mutagenic call is “inactive; negative”.

**Q.** What about the mutagenic call (Test System: AMES SALMONELLA TYPHIMURIUM, Strain/Indicator: TA1537, Metabolic Activation: RAT, LIVER, S-9, KC 500, Method: PREINCUBATION) of the same molecule?
**A.** Its mutagenic call is “inactive; negative”.

**Q.** What about the mutagenic call (Test System: AMES SALMONELLA TYPHIMURIUM, Strain/Indicator: TA1538, Metabolic Activation: HAMSTER, LIVER, S-9, AROCLOR 1254, Method: STANDARD PLATE) of the same molecule?
**A.** The mutagenic call was “inactive; negative”.

**Q.** What about the mutagenic call (Test System: AMES SALMONELLA TYPHIMURIUM, Strain/Indicator: TA1538, Metabolic Activation: NONE, Method: PREINCUBATION) of the same molecule?
**A.** The mutagenic call was “inactive; negative”.

**Q.** What about the mutagenic call [5] of the same molecule?
**A.** The mutagenic call was “inactive; negative”.

**Q.** And the mutagenic call (Test System: AMES SALMONELLA TYPHIMURIUM, Strain/Indicator: TA1538, Metabolic Activation: RAT, LIVER, S-9, AROCLOR 1254, Method: STANDARD PLATE)?
**A.** The mutagenic call was “inactive; negative”.

**Q.** And the mutagenic call (Test System: AMES SALMONELLA TYPHIMURIUM, Strain/Indicator: TA1538, Metabolic Activation: RAT, LIVER, S-9, KC 500, Method: PREINCUBATION)?
**A.** Its mutagenic call is “inactive; negative”.

**Q.** And the mutagenic call (Test System: E. COLI, Strain/Indicator: WP2 UVRA, Metabolic Activation: NONE, Method: PREINCUBATION)?
**A.** The mutagenic call was “inactive; negative”.

**Q.** What about the mutagenic call (Test System: E. COLI, Strain/Indicator: WP2 UVRA, Metabolic Activation: RAT, LIVER, S-9, KC 500, Method: PREINCUBATION) of the same molecule?
**A.** Its mutagenic call is “inactive; negative”.

**Q.** What about the mutagenic call [6] of the same molecule?
**A.** The mutagenic call was “inactive; negative”.

**Q.** What about the mutagenic call [7] of the same molecule?
**A.** The mutagenic call was “active; positive”.

**Q.** `CC1(C)[C@H](C=C(Cl)Cl)[C@H]1C(=O)OCc1cccc(Oc2ccccc2)c1` was tested. Which mutagenic call (Test System: AMES SALMONELLA TYPHIMURIUM, Strain/Indicator: TA97, Metabolic Activation: NONE, Method: STANDARD PLATE) did it give?
**A.** The mutagenic call was “inactive; negative”.

**Q.** And the mutagenic call (Test System: AMES SALMONELLA TYPHIMURIUM, Strain/Indicator: TA97, Metabolic Activation: RAT, LIVER, S-9, PHENOBARBITONE, Method: STANDARD PLATE)?
**A.** The mutagenic call was “inactive; negative”.

**Q.** What about the mutagenic call [1] of the same molecule?
**A.** The mutagenic call was “inactive; negative”.

**Q.** What about the mutagenic call (Test System: AMES SALMONELLA TYPHIMURIUM, Strain/Indicator: TA98, Metabolic Activation: RAT, LIVER, S-9, PHENOBARBITONE, Method: STANDARD PLATE) of the same molecule?
**A.** The mutagenic call was “inactive; negative”.

**Q.** What about the mutagenic call [2] of the same molecule?
**A.** The mutagenic call was “inactive; negative”.

**Q.** What about the mutagenic call (Test System: AMES SALMONELLA TYPHIMURIUM, Strain/Indicator: TA100, Metabolic Activation: RAT, LIVER, S-9, PHENOBARBITONE, Method: STANDARD PLATE) of the same molecule?
**A.** Its mutagenic call is “inactive; negative”.

**Q.** What about the mutagenic call (Test System: AMES SALMONELLA TYPHIMURIUM, Strain/Indicator: TA104, Metabolic Activation: NONE, Method: STANDARD PLATE) of the same molecule?
**A.** The mutagenic call was “inactive; negative”.

**Q.** What about the mutagenic call (Test System: AMES SALMONELLA TYPHIMURIUM, Strain/Indicator: TA104, Metabolic Activation: RAT, LIVER, S-9, PHENOBARBITONE, Method: STANDARD PLATE) of the same molecule?
**A.** Its mutagenic call is “inactive; negative”.

**Q.** Which results are given for `O=C1C=CC(=O)N1c1ccc(Cc2ccc(N3C(=O)C=CC3=O)cc2)cc1`?
**A.** mutagenic call (Test System: AMES SALMONELLA TYPHIMURIUM, Strain/Indicator: TA98, Metabolic Activation: HAMSTER, LIVER, S-9, AROCLOR 1254 (10%), Method: STANDARD PLATE): inactive; negative; mutagenic call [1]: inactive; negative; mutagenic call (Test System: AMES SALMONELLA TYPHIMURIUM, Strain/Indicator: TA98, Metabolic Activation: RAT, LIVER, S-9, AROCLOR 1254 (10%), Method: STANDARD PLATE): inactive; negative; mutagenic call (Test System: AMES SALMONELLA TYPHIMURIUM, Strain/Indicator: TA100, Metabolic Activation: HAMSTER, LIVER, S-9, AROCLOR 1254 (10%), Method: STANDARD PLATE): inactive; negative; mutagenic call [2]: inactive; negative; mutagenic call (Test System: AMES SALMONELLA TYPHIMURIUM, Strain/Indicator: TA100, Metabolic Activation: RAT, LIVER, S-9, AROCLOR 1254 (10%), Method: STANDARD PLATE): inactive; negative; mutagenic call (Test System: AMES SALMONELLA TYPHIMURIUM, Strain/Indicator: TA1535, Metabolic Activation: HAMSTER, LIVER, S-9, AROCLOR 1254 (10%), Method: STANDARD PLATE): inactive; negative; mutagenic call [3]: inactive; negative; mutagenic call (Test System: AMES SALMONELLA TYPHIMURIUM, Strain/Indicator: TA1535, Metabolic Activation: RAT, LIVER, S-9, AROCLOR 1254 (10%), Method: STANDARD PLATE): inactive; negative; mutagenic call (Test System: AMES SALMONELLA TYPHIMURIUM, Strain/Indicator: TA1537, Metabolic Activation: HAMSTER, LIVER, S-9, AROCLOR 1254 (10%), Method: STANDARD PLATE): inactive; negative; mutagenic call [4]: inactive; negative; mutagenic call (Test System: AMES SALMONELLA TYPHIMURIUM, Strain/Indicator: TA1537, Metabolic Activation: RAT, LIVER, S-9, AROCLOR 1254 (10%), Method: STANDARD PLATE): inactive; negative; mutagenic call (Test System: AMES SALMONELLA TYPHIMURIUM, Strain/Indicator: TA1538, Metabolic Activation: HAMSTER, LIVER, S-9, AROCLOR 1254 (10%), Method: STANDARD PLATE): inactive; negative; mutagenic call [5]: inactive; negative; mutagenic call (Test System: AMES SALMONELLA TYPHIMURIUM, Strain/Indicator: TA1538, Metabolic Activation: RAT, LIVER, S-9, AROCLOR 1254 (10%), Method: STANDARD PLATE): inactive; negative; mutagenic call [6]: inactive; negative. reevaluation of results: negative; mutagenic call [7]: active; positive. reevaluation of results: equivocal

**Q.** For `C1=CC2OC2c2cccnc21` (stereo unspecified), which mutagenic call [2] is on record?
**A.** Its mutagenic call is “inactive; negative”.

**Q.** What about the mutagenic call (Test System: AMES SALMONELLA TYPHIMURIUM, Strain/Indicator: TA100, Metabolic Activation: RAT, LIVER, S-9, AROCLOR 1254 (10% OR 20%), Method: STANDARD PLATE) of the same molecule?
**A.** The mutagenic call was “inactive; negative”.
